According to ChEMBL document CHEMBL4342421, “Current scenario of tetrazole hybrids for antibacterial activity” (Eur J Med Chem, 2019):
Values after ≈ are worked out from the molar mass of the structure shown.

Legend:
Staphylococcus aureus [1] = test: Antimicrobial activity against Staphylococcus aureus; assay type: functional
Streptococcus pyogenes = test: Antimicrobial activity against Streptococcus pyogenes; assay type: functional
Klebsiella pneumoniae = test: Antimicrobial activity against Klebsiella pneumoniae; assay type: functional
Proteus vulgaris = test: Antimicrobial activity against Proteus vulgaris; assay type: functional
Bacillus subtilis [2] = test: Antimicrobial activity against Bacillus subtilis; assay type: functional
Escherichia coli [3] = test: Antimicrobial activity against Escherichia coli; assay type: functional
Pseudomonas aeruginosa [4] = test: Potency index, ratio of streptomycin MIC to test compound MIC for antimicrobial activity against Pseudomonas aeruginosa; assay type: functional
Pseudomonas aeruginosa [5] = test: Antimicrobial activity against Pseudomonas aeruginosa; assay type: functional
Bacillus subtilis [6] = test: Potency index, ratio of streptomycin MIC to test compound MIC for antimicrobial activity against Bacillus subtilis; assay type: functional
Escherichia coli [7] = test: Potency index, ratio of streptomycin MIC to test compound MIC for antimicrobial activity against Escherichia coli; assay type: functional
Candida albicans [8] = test: Antifungal activity against Candida albicans assessed as zone of inhibition at 10 ug/ml; assay type: functional; settings: read-out: IZ
Bacillus cereus = test: Antimicrobial activity against Bacillus cereus assessed as zone of inhibition at 250 ug/ml; assay type: functional; settings: read-out: IZ
Pseudomonas aeruginosa [9] = test: Antimicrobial activity against Pseudomonas aeruginosa assessed as zone of inhibition at 250 ug/ml; assay type: functional; settings: read-out: IZ
Candida albicans [10] = test: Antifungal activity against Candida albicans assessed as zone of inhibition at 250 ug/ml; assay type: functional; settings: read-out: IZ
Staphylococcus aureus [11] = test: Antimicrobial activity against Staphylococcus aureus assessed as zone of inhibition at 250 ug/ml; assay type: functional; settings: read-out: IZ
Staphylococcus aureus [12] = test: Antimicrobial activity against Staphylococcus aureus assessed as zone of inhibition at 10 ug/ml; assay type: functional; settings: read-out: IZ
Escherichia coli [13] = test: Antimicrobial activity against Escherichia coli assessed as zone of inhibition at 10 ug/ml; assay type: functional; settings: read-out: IZ
Aspergillus fumigatus [14] = test: Antifungal activity against Aspergillus fumigatus assessed as zone of inhibition at 10 ug/ml; assay type: functional; settings: read-out: IZ
Candida albicans [15] = test: Antifungal activity against Candida albicans; assay type: functional
Bacillus subtilis [16] = test: Antimicrobial activity against Bacillus subtilis assessed as zone of inhibition at 10 ug/ml; assay type: functional; settings: read-out: IZ
Escherichia coli [17] = test: Antimicrobial activity against Escherichia coli assessed as zone of inhibition at 250 ug/ml; assay type: functional; settings: read-out: IZ
Aspergillus niger = test: Antifungal activity against Aspergillus niger assessed as zone of inhibition at 250 ug/ml; assay type: functional; settings: read-out: IZ
Pseudomonas aeruginosa [18] = test: Antimicrobial activity against Pseudomonas aeruginosa assessed as zone of inhibition at 10 ug/ml; assay type: functional; settings: read-out: IZ
[19] = Clearance in rat; assay type: ADME; settings: in vivo
[20] = Half life in rat; assay type: ADME; settings: in vivo
Escherichia coli [21] = test: Antimicrobial activity against Escherichia coli assessed as zone of inhibition at 250 ug/ml after 24 hrs by disk diffusion method; assay type: functional; settings: read-out: IZ
Bacillus subtilis [22] = test: Antimicrobial activity against Bacillus subtilis assessed as zone of inhibition at 30 ug/ml; assay type: functional; settings: read-out: IZ
Staphylococcus aureus [23] = test: Antimicrobial activity against Staphylococcus aureus assessed as zone of inhibition at 30 ug/ml; assay type: functional; settings: read-out: IZ
Escherichia coli [24] = test: Antimicrobial activity against Escherichia coli assessed as zone of inhibition at 30 ug/ml; assay type: functional; settings: read-out: IZ
Candida albicans [25] = test: Antifungal activity against Candida albicans assessed as zone of inhibition at 30 ug/ml; assay type: functional; settings: read-out: IZ
Pseudomonas aeruginosa [26] = test: Antimicrobial activity against Pseudomonas aeruginosa assessed as zone of inhibition at 30 ug/ml; assay type: functional; settings: read-out: IZ
Aspergillus fumigatus [27] = test: Antifungal activity against Aspergillus fumigatus assessed as zone of inhibition at 30 ug/ml; assay type: functional; settings: read-out: IZ
[28] = AUC in rat; assay type: ADME; settings: in vivo

Work on O=C(O)c1cn(C2CC2)c2cc(N3CCN(C(=O)Cn4nnnc4S)CC3)c(F)cc2c1=O yielded an MIC (Staphylococcus aureus [1]) of 2 to 128 µg/mL (≈ 4.22 to 270 µM), an MIC (Streptococcus pyogenes) of 2 to 128 µg/mL (≈ 4.22 to 270 µM) and an MIC (Klebsiella pneumoniae) of 2 to 128 µg/mL (≈ 4.22 to 270 µM). It also gave an MIC (Proteus vulgaris) of 2 to 128 µg/mL (≈ 4.22 to 270 µM).
For O=c1c(OCc2nnn[nH]2)c(-c2ccc(F)cc2)oc2ccccc12, the MIC (Bacillus subtilis [2]) was 100 µg/mL (≈ 296 µM), the MIC (Escherichia coli [3]) was 100 µg/mL (≈ 296 µM) and the Ratio (Pseudomonas aeruginosa [4]) was 2 - 4. The MIC (Staphylococcus aureus [1]) was 100 µg/mL (≈ 296 µM), the MIC (Pseudomonas aeruginosa [5]) was 100 µg/mL (≈ 296 µM) and the Ratio (Bacillus subtilis [6]) was 2 - 4. For the same compound, the Ratio (Escherichia coli [7]) was 2 - 4.
CC(=O)N1CCN(c2ccc(OCC3COC(Cn4ccnc4)(c4ccc(Cl)cc4Cl)O3)cc2)CC1 (configuration not stated) [KETOCONAZOLE] gave an MIC (Bacillus subtilis [2]) of 100 µg/mL (≈ 188 µM), a zone of inhibition at 10 µg/mL (Candida albicans [8]) of 23 to 24 mm and a zone of inhibition at 250 µg/mL (Bacillus cereus) of 23 to 26 mm. The zone of inhibition at 250 µg/mL (Pseudomonas aeruginosa [9]) was 23 to 26 mm, the zone of inhibition at 250 µg/mL (Candida albicans [10]) was 23 to 26 mm and the zone of inhibition at 250 µg/mL (Staphylococcus aureus [11]) was 23 to 26 mm. For the same compound, the zone of inhibition at 10 µg/mL (Staphylococcus aureus [12]) was 23 to 24 mm, the zone of inhibition at 10 µg/mL (Escherichia coli [13]) was 23 to 24 mm and the zone of inhibition at 10 µg/mL (Aspergillus fumigatus [14]) was 23 to 24 mm. The MIC (Candida albicans [15]) was 100 µg/mL (≈ 188 µM), the zone of inhibition at 10 µg/mL (Bacillus subtilis [16]) was 23 to 24 mm and the zone of inhibition at 250 µg/mL (Escherichia coli [17]) was 23 to 26 mm. For the same compound, the zone of inhibition at 250 µg/mL (Aspergillus niger) was 23 to 26 mm and the zone of inhibition at 10 µg/mL (Pseudomonas aeruginosa [18]) was 23 to 24 mm.
C[C@@H](O)[C@H]1C(=O)N2C(C(=O)O)=C(S[C@@H]3CN[C@H](C(=O)N(C)C)C3)[C@H](C)[C@H]12 [MEROPENEM] showed a clearance [19] of 51.2 mL/min/kg and a t1/2 [20] of 3.99 h.
CC1(C)S[C@@H]2[C@H](NC(=O)[C@H](N)c3ccc(O)cc3)C(=O)N2[C@H]1C(=O)O [AMOXICILLIN] gave a zone of inhibition at 250 µg/mL (Escherichia coli [21]) of 21 to 27 mm, a zone of inhibition at 250 µg/mL (Bacillus cereus) of 21 to 27 mm and a zone of inhibition at 250 µg/mL (Pseudomonas aeruginosa [9]) of 21 to 27 mm. For the same compound, the zone of inhibition at 250 µg/mL (Candida albicans [10]) was 21 to 27 mm, the zone of inhibition at 250 µg/mL (Staphylococcus aureus [11]) was 21 to 27 mm and the zone of inhibition at 30 µg/mL (Bacillus subtilis [22]) was 25 to 28 mm. It also gave a zone of inhibition at 30 µg/mL (Staphylococcus aureus [23]) of 25 to 28 mm, a zone of inhibition at 30 µg/mL (Escherichia coli [24]) of 25 to 28 mm and a zone of inhibition at 30 µg/mL (Candida albicans [25]) of 25 to 28 mm. It also gave a zone of inhibition at 30 µg/mL (Pseudomonas aeruginosa [26]) of 25 to 28 mm, a zone of inhibition at 250 µg/mL (Escherichia coli [17]) of 21 to 27 mm and a zone of inhibition at 250 µg/mL (Aspergillus niger) of 21 to 27 mm. The zone of inhibition at 30 µg/mL (Aspergillus fumigatus [27]) was 25 to 28 mm.
In the case of C[C@@H](O)[C@H]1C(=O)N2C(C(=O)O)=C(SCCN=CN)C[C@H]12 [IMIPENEM ANHYDROUS], the t1/2 [20] is reported as 3.46 h and the AUC [28] is reported as 5500 ng·h/mL.
